The structures appear in SMILES notation. Read-outs that look alike come from different tables or passages of the source.

The values below come from patent US20180002288A1, “USE OF PICOLINAMIDES AS FUNGICIDES” (DOW AGROSCIENCES LLC, priority 2014, published 2018).

Experiment [1] deals with Puccinia triticina. Description: Wheat Brown Rust fungicidal activity (PUCCRT). It counts as in vivo. The conditions noted are these: for pest or weed control at 121.5 g/ha: Low Volume Cereal Activity at 121.5 g/Ha; for pest or weed control at 100 ppm: wheat, high volume. The method, then: All fungicides were evaluated using the aforementioned method for their activity vs. all target diseases, unless stated otherwise. Wheat leaf blotch and brown rust activity were also evaluated using track spray applications, in which case the fungicides were formulated as EC formulations, containing 0.1% Trycol 5941 in the spray solutions. Wheat plants (variety Yuma) were grown from seed in a greenhouse in 50% mineral soil/50% soil-less Metro mix until the first leaf was fully emerged, with 7-10 seedlings per pot. These plants were inoculated with an aqueous spore suspension of Zymoseptoria tritici either prior to or after fungicide treatments. After inoculation the plants were kept in 100% relative humidity (one day in a dark dew chamber followed by two to three days in a lighted dew chamber at 20° C.) to permit spores to germinate and infect the leaf. The plants were then transferred to a greenhouse set at 20° C. for disease to develop. When disease symptoms were fully expressed on the 1st leaves of untreated plants, infection levels were assessed on a scale of 0 to 100 percent disease severity. Percent disease control was calculated using the ratio of disease severity on treated plants relative to untreated plants. Wheat plants (variety Yuma) were grown from seed in a greenhouse in 50% mineral soil/50% soil-less Metro mix until the first leaf was fully emerged, with 7-10 seedlings per pot. These plants were inoculated with an aqueous spore suspension of Puccinia triticina either prior to or after fungicide treatments. […] The plants were then transferred to a greenhouse set at 24° C. for disease to develop. Fungicide formulation, application and disease assessment followed the procedures as described in the Example A.

Experiment [2] concerns Zymoseptoria tritici. Description: Leaf Blotch of Wheat fungicidal activity (SEPTTR). The format is in vivo. Particulars: for pest or weed control at 121.5 g/ha: Low Volume Cereal Activity at 121.5 g/Ha; for pest or weed control at 100 ppm: wheat, high volume. The method, then: All fungicides were evaluated using the aforementioned method for their activity vs. all target diseases, unless stated otherwise. Wheat leaf blotch and brown rust activity were also evaluated using track spray applications, in which case the fungicides were formulated as EC formulations, containing 0.1% Trycol 5941 in the spray solutions. Wheat plants (variety Yuma) were grown from seed in a greenhouse in 50% mineral soil/50% soil-less Metro mix until the first leaf was fully emerged, with 7-10 seedlings per pot. These plants were inoculated with an aqueous spore suspension of Zymoseptoria tritici either prior to or after fungicide treatments. After inoculation the plants were kept in 100% relative humidity (one day in a dark dew chamber followed by two to three days in a lighted dew chamber at 20° C.) to permit spores to germinate and infect the leaf. The plants were then transferred to a greenhouse set at 20° C. for disease to develop. When disease symptoms were fully expressed on the 1st leaves of untreated plants, infection levels were assessed on a scale of 0 to 100 percent disease severity. Percent disease control was calculated using the ratio of disease severity on treated plants relative to untreated plants.

The mark [3] stands for this setting: 24 h, 1 Day Protectant, read-out: PUCCRT 1DP (Wheat Brown Rust, 1 Day Protectant).
Setting [4] is: 72 h, 3 Day Curative, read-out: PUCCRT 3DC (Wheat Brown Rust, 3 Day Curative).
Where [5] appears, read: 24 h, 1 Day Protectant, read-out: SEPTTR 1DP (Wheat Leaf Blotch, 1 Day Protectant).
The mark [6] stands for this setting: 72 h, 3 Day Curative, read-out: SEPTTR 3DC (Wheat Leaf Blotch, 3 Day Curative).
Where [7] appears, read: 24 h, 1 Day Protectant, read-out: PUCCRT 1DP % Control rating.
Where [8] appears, read: 72 h, 3 Day Curative, read-out: PUCCRT 3DC % Control rating.
Setting [9] is: 24 h, 1 Day Protectant, read-out: SEPTTR 1DP % Control rating.
The mark [10] stands for this setting: 72 h, 3 Day Curative, read-out: SEPTTR 3DC % Control rating.

With `COc1ccnc(C(=O)N[C@@H](C)C(=O)O[C@@H](C)[C@H](Oc2cc(F)cc(Cl)c2)c2ccccc2)c1OCOC(C)=O` [Example 206], the pest or weed control at 121.5 g/ha is greater than 80% in experiment [1] (setting [3]), less than 80% in experiment [1] (setting [4]), greater than 80% in experiment [2] (setting [5]) and greater than 80% in experiment [2] (setting [6]).

`COc1ccnc(C(=O)N[C@@H](C)C(=O)O[C@@H](C)[C@@H](Oc2ccccc2)c2ccccc2)c1O` [Example 135]: the pest or weed control at 100 ppm is greater than 80% in experiment [1] (setting [7]), less than 0% in experiment [1] (setting [8]), greater than 80% in experiment [2] (setting [9]) and greater than 80% in experiment [2] (setting [10]).

On to `COc1cccc([C@@H](Oc2ccccc2)[C@H](C)OC(=O)[C@H](C)NC(=O)c2nccc(OC)c2OCOC(C)=O)c1` [Example 258], for which the pest or weed control at 121.5 g/ha in experiment [1] (setting [3]), in experiment [1] (setting [4]), in experiment [2] (setting [5]) and in experiment [2] (setting [6]) was greater than 80% in each case.

`COc1ccnc(C(=O)N[C@@H](C)C(=O)O[C@@H](C)[C@H](Oc2ccc(C(F)(F)F)cc2)c2ccccc2)c1OCOC(C)=O` [Example 195]: the pest or weed control at 121.5 g/ha was greater than 80% in experiment [1] (setting [3]), less than 80% in experiment [1] (setting [4]), greater than 80% in experiment [2] (setting [5]) and greater than 80% in experiment [2] (setting [6]).

In the case of `COc1ccnc(C(=O)N[C@@H](C)C(=O)O[C@@H](C)[C@H](Oc2ccccc2)c2cccc(-c3ccccc3)c2)c1OCOC(C)=O` [Example 240], the pest or weed control at 121.5 g/ha is greater than 80% in experiment [1] (setting [3]), less than 80% in experiment [1] (setting [4]), greater than 80% in experiment [2] (setting [5]) and greater than 80% in experiment [2] (setting [6]).

For `COc1ccnc(C(=O)N[C@@H](C)C(=O)O[C@@H](C)[C@H](Oc2ccc(Cl)cc2)c2ccccc2)c1OCOC(C)=O` [Example 201], the pest or weed control at 121.5 g/ha in experiment [1] (setting [3]), in experiment [1] (setting [4]), in experiment [2] (setting [5]) and in experiment [2] (setting [6]) was greater than 80% in each case.

Turning to `COc1ccnc(C(=O)N[C@@H](C)C(=O)O[C@@H](C)[C@@H](Oc2ccccc2)c2cccs2)c1O` [Example 129], the pest or weed control at 100 ppm in experiment [1] (setting [7]) is less than 80%; in experiment [1] (setting [8]), less than 80%; in experiment [2] (setting [9]), greater than 80%; in experiment [2] (setting [10]), less than 80%.

Regarding `COc1ccnc(C(=O)N[C@@H](C)C(=O)O[C@@H](C)[C@H](Oc2ccc(F)cc2)c2ccccc2)c1O` [Example 146], the pest or weed control at 100 ppm in experiment [1] (setting [7]), in experiment [1] (setting [8]), in experiment [2] (setting [9]) and in experiment [2] (setting [10]) was greater than 80% each time.

On to `COc1ccnc(C(=O)N[C@@H](C)C(=O)O[C@@H](C)[C@H](OCC2CC2)c2cccc(-c3ccccc3)c2)c1O` [Example 131], for which the pest or weed control at 100 ppm in experiment [1] (setting [7]) is less than 80%; in experiment [1] (setting [8]) it was less than 80%; in experiment [2] (setting [9]), less than 0%; in experiment [2] (setting [10]), less than 80%.

On to `COc1ccnc(C(=O)N[C@H](C(=O)O[C@@H](C)[C@H](Oc2ccc(C(F)(F)F)cc2)c2ccccc2)C(C)C)c1OC(C)=O` [Example 198], for which the pest or weed control at 121.5 g/ha in experiment [1] (setting [3]) is greater than 80%; in experiment [1] (setting [4]), less than 80%; in experiment [2] (setting [5]), greater than 80%; in experiment [2] (setting [6]) it was less than 0%.

As for `CCOc1cc(F)ccc1[C@@H](Oc1ccccc1)[C@H](C)OC(=O)[C@H](C)NC(=O)c1nccc(OC)c1O` [Example 168], the pest or weed control at 100 ppm in experiment [1] (setting [7]), in experiment [1] (setting [8]), in experiment [2] (setting [9]) and in experiment [2] (setting [10]) was greater than 80% in each case.

Turning to `COc1ccnc(C(=O)N[C@@H](C)C(=O)O[C@@H](C)[C@H](Oc2ccc(C)cc2)c2ccc(F)cc2)c1OCOC(C)=O` [Example 249], the pest or weed control at 121.5 g/ha in experiment [1] (setting [3]), in experiment [1] (setting [4]), in experiment [2] (setting [5]) and in experiment [2] (setting [6]) was greater than 80% throughout.

For `COc1ccnc(C(=O)N[C@@H](C)C(=O)O[C@@H](C)[C@H](Oc2ccc(Cl)cc2Cl)c2ccccc2)c1O` [Example 120], the pest or weed control at 100 ppm in experiment [1] (setting [7]) is greater than 80%; in experiment [1] (setting [8]) it was less than 80%; in experiment [2] (setting [9]), greater than 80%; in experiment [2] (setting [10]) it was less than 80%.

Turning to `CC[C@H](NC(=O)c1nccc(OC)c1O)C(=O)O[C@@H](C)[C@H](Oc1cc(F)cc(Cl)c1)c1ccccc1` [Example 124], the pest or weed control at 100 ppm in experiment [1] (setting [7]), in experiment [1] (setting [8]), in experiment [2] (setting [9]) and in experiment [2] (setting [10]) was greater than 80% each time.

Turning to `COc1ccnc(C(=O)N[C@@H](C)C(=O)O[C@@H](C)[C@H](Oc2ccccc2)c2cccc(-c3ccccc3)c2)c1O` [Example 145], the pest or weed control at 100 ppm is greater than 80% in experiment [1] (setting [7]), less than 80% in experiment [1] (setting [8]), greater than 80% in experiment [2] (setting [9]) and greater than 80% in experiment [2] (setting [10]).

As to `COc1ccnc(C(=O)N[C@@H](C)C(=O)O[C@@H](C)[C@H](Oc2cc(F)ccc2F)c2ccccc2)c1OC(C)=O` [Example 192], the pest or weed control at 121.5 g/ha in experiment [1] (setting [3]) is greater than 80%; in experiment [1] (setting [4]), greater than 80%; in experiment [2] (setting [5]), greater than 80%; in experiment [2] (setting [6]) it was less than 80%.

With `COc1ccnc(C(=O)N[C@@H](C)C(=O)O[C@@H](C)[C@H](Oc2ccccc2)c2ccc(F)cc2)c1O` [Example 148], the pest or weed control at 100 ppm was greater than 80% in experiment [1] (setting [7]), less than 80% in experiment [1] (setting [8]), less than 80% in experiment [2] (setting [9]) and greater than 80% in experiment [2] (setting [10]).

`COc1ccnc(C(=O)N[C@@H](C)C(=O)O[C@@H](C)[C@H](Oc2ccccc2)c2ccc(F)cc2C)c1O` [Example 162]: the pest or weed control at 100 ppm in experiment [1] (setting [7]), in experiment [1] (setting [8]), in experiment [2] (setting [9]) and in experiment [2] (setting [10]) was greater than 80% each time.

For `COc1ccnc(C(=O)N[C@@H](C)C(=O)O[C@@H](C)[C@H](Oc2ccc(C(F)(F)F)cc2)c2ccccc2)c1O` [Example 125], the pest or weed control at 100 ppm in experiment [1] (setting [7]) is less than 80%; in experiment [1] (setting [8]), less than 0%; in experiment [2] (setting [9]), less than 80%; in experiment [2] (setting [10]), less than 80%.

With `COc1ccnc(C(=O)N[C@@H](C)C(=O)O[C@@H](C)[C@H](Oc2cccc(F)c2)c2cccc(-c3ccccc3)c2)c1O` [Example 133], the pest or weed control at 100 ppm in experiment [1] (setting [7]) was less than 80%; in experiment [1] (setting [8]) it was less than 0%; in experiment [2] (setting [9]), less than 0%; in experiment [2] (setting [10]) it was less than 0%.

For `COc1ccnc(C(=O)N[C@H](C)C(=O)O[C@H](C)[C@@H](Oc2ccccc2)c2ccccc2)c1O` [Example 116], the pest or weed control at 100 ppm in experiment [1] (setting [7]) is less than 0%; in experiment [1] (setting [8]), less than 0%; in experiment [2] (setting [9]) it was less than 0%; in experiment [2] (setting [10]) it was less than 80%.

As to `COc1ccnc(C(=O)N[C@@H](C)C(=O)O[C@@H](C)[C@@H](OCC(C)C)c2ccccc2)c1OCOC(C)=O` [Example 226], the pest or weed control at 121.5 g/ha in experiment [1] (setting [3]) was greater than 80%; in experiment [1] (setting [4]) it was greater than 80%; in experiment [2] (setting [5]) it was less than 80%; in experiment [2] (setting [6]), less than 80%.

Consider `COc1cc(F)ccc1[C@@H](OC(=O)C(C)(C)C)[C@H](C)OC(=O)[C@H](C)NC(=O)c1nccc(OC)c1O` [Example 290], for which the pest or weed control at 100 ppm in experiment [1] (setting [7]), in experiment [1] (setting [8]), in experiment [2] (setting [9]) and in experiment [2] (setting [10]) was greater than 80% throughout.
